Test results published in patent EP4644383A1 (Jiangsu Yahong Meditech Co., Ltd., priority 2022, dated 2024).
Read-outs that look alike come from different tables or passages of the source.

Key:
FGFR1 = target: T1, FGFR1 (Homo sapiens, UniProt P11362); test: FGFR1 kinase activity inhibition assay (LanthaScreen TR-FRET); assay type: biochemical
T1 construct: cytoplasmic domain [398-822 (terminal) amino acids]; purchased Carna 08-133
Protocol: (§1) PV3552) and 10 mM EDTA were added to quench the kinase reaction, and incubated at 22°C for 60 minutes. • ⑤ The reaction was measured using a PerkinElmer EnVision multimode plate reader through TR-FRET dual wavelength detection. • 1. The RFU values were copied from the Envision program. • 2. The ratio of RFU 520nm/RFU 495nm was calculated. • 3. The value of the ratio was converted to a percentage inhibition value. % Inhibition = (max-data)/(max-min) × 100 [formula] "Min" represents the ratio of the control without enzyme, "max" represents the ratio of the DMSO control, and "data" represents the ratio of the compounds in wells with different concentrations. […] "Top" refers to the maximum response, "Bottom" refers to the minimum response, and "HillSlope" refers to the slope of the curve.

FGFR3 = target: T2, FGFR3 (Homo sapiens, UniProt P22607); test: FGFR3 kinase activity inhibition assay (LanthaScreen TR-FRET); assay type: biochemical; conditions: for Selectivity (X) FGFR1/FGFR3: ratio of IC50 FGFR1/FGFR3, selectivity towards FGFR3
T2 construct: FGFR3's cytoplasmic domain [436-806 (terminal) amino acids]; purchased Carna 08-135
Protocol: as §1, with “curve. According to the same method as that in the FGFR1 kinase activity inhibition assay, the inhibitory activities against FGFR2, FGFR3 and FGFR4 were tested using FGFR2's cytoplasmic domain [399-821 (terminal) amino acids] (Carna: 08-134), FGFR3's cytoplasmic domain [436-806 (terminal) amino acids] (Carna: 08-135) and FGFR4's cytoplasmic domain [460-802 (terminal) amino acids] (Carna: 08-136), respectively. […]” for “curve.”

[1] = FGFR1 kinase, TR-FRET, read-out: IC50 (nM) FGFR1
[2] = FGFR3 kinase, TR-FRET, read-out: IC50 (nM) FGFR3

T1 sequence (P11362 398-822): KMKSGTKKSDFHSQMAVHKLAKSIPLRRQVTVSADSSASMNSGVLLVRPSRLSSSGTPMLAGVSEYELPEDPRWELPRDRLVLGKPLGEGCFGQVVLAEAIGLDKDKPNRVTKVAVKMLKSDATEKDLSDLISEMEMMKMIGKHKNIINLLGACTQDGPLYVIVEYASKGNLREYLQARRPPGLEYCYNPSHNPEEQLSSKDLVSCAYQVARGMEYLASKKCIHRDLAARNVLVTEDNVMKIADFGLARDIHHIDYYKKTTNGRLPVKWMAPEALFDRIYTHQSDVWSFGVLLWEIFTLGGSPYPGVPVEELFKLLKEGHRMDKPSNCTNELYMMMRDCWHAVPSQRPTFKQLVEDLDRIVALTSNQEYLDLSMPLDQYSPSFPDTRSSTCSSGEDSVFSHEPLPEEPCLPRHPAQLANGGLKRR
T2 sequence (P22607 436-806): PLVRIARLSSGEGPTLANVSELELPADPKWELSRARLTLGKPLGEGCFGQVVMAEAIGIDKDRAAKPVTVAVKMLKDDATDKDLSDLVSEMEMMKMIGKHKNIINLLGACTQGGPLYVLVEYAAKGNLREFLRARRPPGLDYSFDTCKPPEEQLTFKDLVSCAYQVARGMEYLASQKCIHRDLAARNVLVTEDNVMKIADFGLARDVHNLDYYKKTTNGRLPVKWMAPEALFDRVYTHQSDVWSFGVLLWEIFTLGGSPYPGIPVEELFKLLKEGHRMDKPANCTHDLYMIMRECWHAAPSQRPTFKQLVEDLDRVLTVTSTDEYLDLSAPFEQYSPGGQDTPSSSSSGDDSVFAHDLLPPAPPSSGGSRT

| IC50 (FGFR1; [1]) [nM] | IC50 (FGFR3; [2]) [nM] | Selectivity (X) FGFR1/FGFR3 (FGFR3) | SMILES | IC50 (FGFR1) [nM] | IC50 (FGFR3) [nM] |
| --- | --- | --- | --- | --- | --- |
| 1 to 10 | 1 to 10 | A (A represents 1 ≤ multiple X<20) | C[C@@H](Oc1ccc2[nH]nc(-c3cnn(C4CCOCC4)c3)c2n1)c1c(Cl)cncc1Cl [Example 34, (R)-5-(1-(3,5-dichloropyridin-4-yl)ethoxy)-3-(1-(tetrahydro-2H-pyran-4-yl)-1H-pyrazol-4-yl)1H-pyrazolo[4,3-b]pyridine] | – | – |
| 10 to 100 | 1 to 10 | B (B represents 20 ≤ multiple X<50) | C[C@@H](Oc1ccc2[nH]nc(-c3cnn(CCS(C)(=O)=O)c3)c2n1)c1c(Cl)cncc1Cl [Example 42, (R)-5-(1-(3,5-dichloropyridin-4-yl)ethoxy)-3-(1-(2-(methylsulfonyl)ethyl)-1H-pyrazol-4-yl)-1H-pyrazolo[4,3-b]pyridine] | – | – |
| > 100 | 10 to 100 | A (A represents 1 ≤ multiple X<20) | C[C@@H](Oc1ccc2[nH]nc(-c3cnn4c3CCC4)c2n1)c1c(Cl)cncc1Cl [Example 45, (R)-5-(1-(3,5-dichloropyridin-4-yl)ethoxy)-3-(5,6-dihydro-4H-pyrrolo[1,2-b]pyrazol-3-yl)-1H-pyrazolo[4,3-b]pyridine] | – | – |
| 10 to 100 | < 1 | B (B represents 20 ≤ multiple X<50) | CCCn1cc(-c2n[nH]c3ccc(O[C@H](C)c4c(Cl)cncc4Cl)nc23)cn1 [Example 46, (R)-5-(1-(3,5-dichloropyridin-4-yl)ethoxy)-3-(1-propyl-1H-pyrazol-4-yl)-1H-pyrazolo[4,3-b]pyridine] | – | – |
| 10 to 100 | 1 to 10 | B (B represents 20 ≤ multiple X<50) | C[C@@H](Oc1ccc2[nH]nc(-c3cnn(CC4CC4)c3)c2n1)c1c(Cl)cncc1Cl [Example 49, (R)-3-(1-(cyclopropylmethy 1)-1H-pyrazol-4-yl)-5-(1-(3,5-dichloropyridin-4-yl)ethoxy)-1H-pyrazolo[4,3-b]pyridine] | – | – |
| 10 to 100 | < 1 | A (A represents 1 ≤ multiple X<20) | C[C@@H](Oc1ccc2[nH]nc(-c3cnn(CCC#N)c3)c2n1)c1c(Cl)cncc1Cl [Example 50, (R)-3-(4-(5-(1-(3,5-dichloropyridin-4-yl)ethoxy)-1H-pyrazolo[4,3-b]pyridin-3-yl)-1H-pyrazol-1-yl)propionitrile] | – | – |
| > 100 | 10 to 100 | A (A represents 1 ≤ multiple X<20) | Cc1ncc(-c2n[nH]c3ccc(O[C@H](C)c4c(Cl)cncc4Cl)nc23)cn1 [Example 52, (R)-5-(1-(3,5-dichloropyridin-4-yl)ethoxy)-3-(2-methylpyrimidin-5-yl)-1H-pyrazolo[4,3-b]pyridine] | – | – |
| 1 to 10 | < 1 | A (A represents 1 ≤ multiple X<20) | C[C@@H](Oc1ccc2[nH]nc(-c3cnn(CCN4CCN(C)CC4)c3)c2n1)c1c(Cl)cncc1Cl [Example 53, (R)-5-(1-(3,5-dichloropyridin-4-yl)ethoxy)-3-(1-(2-(4-methylpiperazin-1-yl)ethyl)-1H-pyrazol-4-yl)-1H-pyrazolo[4,3-b]pyridine] | – | – |
| 10 to 100 | 1 to 10 | A (A represents 1 ≤ multiple X<20) | C[C@@H](Oc1ccc2[nH]nc(-c3cnn(CC(=O)N4CCOCC4)c3)c2n1)c1c(Cl)cncc1Cl [Example 63, (R)-2-(4-(5-(1-(3,5-dichloropyridin-4-yl)ethoxy)-1H-pyrazolo[4,3-b]pyridin-3-yl)-1H-pyrazol-1-yl)-1-morpholinoethan-1-one] | – | – |
| 10 to 100 | 1 to 10 | A (A represents 1 ≤ multiple X<20) | C[C@@H](Oc1ccc2[nH]nc(-c3cnn(CCN4CCCC4=O)c3)c2n1)c1c(Cl)cncc1Cl [Example 64, (R)-1-(2-(4-(5-(1-(3,5-dichloropyridin-4-yl)ethoxy)-1H-pyrazolo[4,3-b]pyridin-3-yl)-1H-pyrazol-1-yl)ethyl)pyrrolidin-2-one] | – | – |

Further lines, the molecule ahead of its results:

| SMILES | IC50 (FGFR1; [1]) [nM] | IC50 (FGFR3; [2]) [nM] | Selectivity (X) FGFR1/FGFR3 (FGFR3) | IC50 (FGFR1) [nM] | IC50 (FGFR3) [nM] |
| --- | --- | --- | --- | --- | --- |
| C[C@@H](Oc1cc(F)c2[nH]nc(-c3cnn(CC(=O)N4CCOCC4)c3)c2c1)c1c(Cl)cncc1Cl [Example 19, (R)-2-(4-(5-(1-(3,5-dichloropyridin-4-yl)ethoxy)-7-fluoro-1H-indazol-3-yl)-1H-pyrazol-1-yl)-1-morpholinoetha n-1-one] | 10 to 100 | 10 to 100 | A (A represents 1 ≤ multiple X<20) | – | – |
| COCCN(C)CCn1cc(-c2n[nH]c3c(F)cc(O[C@H](C)c4c(Cl)cncc4Cl)cc23)cn1 [Example 20, (R)-2-(4-(5-(1-(3,5-dichloropyridin-4-yl)ethoxy)-7-fluoro-1H-indazol-3-yl)-1H-pyrazol-1-yl)-N-(2-methoxyethyl)-N-methylethan-1-amine] | 1 to 10 | < 1 | A (A represents 1 ≤ multiple X<20) | – | – |
| COCCOCCn1cc(-c2n[nH]c3c(F)cc(O[C@H](C)c4c(Cl)cncc4Cl)cc23)cn1 [Example 21] | – | – | A (A represents 1 ≤ multiple X<20) | > 100 | 10 to 100 |
| C[C@@H](Oc1cc(F)c2[nH]nc(-c3cnn(CCN4CCN(C)CC4)c3)c2c1)c1c(Cl)cncc1Cl [Example 22, (R)-5-(1-(3,5-dichloropyridin-4-yl)ethoxy)-7-fluoro-3-(1-(2-(4-methylpiperazin-1-yl)ethyl)-1H-pyrazol-4-yl)-1H-indazole] | 10 to 100 | 1 to 10 | A (A represents 1 ≤ multiple X<20) | – | – |
| COc1cc(O[C@H](C)c2c(Cl)cncc2Cl)cc2c(-c3cnn(CCN4CCOCC4)c3)n[nH]c12 [Example 25, (R)-4-(2-(4-(5-(1-(3,5-dichloropyridin-4-yl)ethoxy)-7-methoxy-1H-indazol-3-yl)-1H-pyrazol-1-yl)ethyl)morpholine] | – | – | B (B represents 20 ≤ multiple X<50) | > 100 | > 100 |
| Cc1cc(O[C@H](C)c2c(Cl)cncc2Cl)cc2c(-c3cnn(CC4CC4)c3)n[nH]c12 [Example 26, (R)-3-(1-(cyclopropylmethyl)-1H-pyrazol-4-yl)-5-(1-(3,5-dichloropyridin-4-yl)ethoxy)-7-methyl-1H-indazole] | – | – | B (B represents 20 ≤ multiple X<50) | > 100 | 10 to 100 |
| Cc1c(-c2n[nH]c3ccc(O[C@H](C)c4c(Cl)cncc4Cl)nc23)cnn1C [Example 30, (R)-5-(1-(3,5-dichloropyridin-4-yl)ethoxy)-3-(1,5-dimethyl-1H-pyrazol-4-yl)-1H-pyrazolo[4,3-b]pyridine] | – | – | A (A represents 1 ≤ multiple X<20) | 10 to 100 | 10 to 100 |
| C[C@@H](Oc1ccc2[nH]nc(-c3cnn(CCCN4CCOCC4)c3)c2n1)c1c(Cl)cncc1Cl [Example 32, (R)-4-(3-(4-(5-(1-(3,5-dichloropyridin-4-yl)ethoxy)-1H-pyrazolo[4,3-b]pyridin-3-yl)-1H-pyrazol-1-yl)propyl)morpholine] | 1 to 10 | < 1 | A (A represents 1 ≤ multiple X<20) | – | – |
| CC(=O)N1CCC(n2cc(-c3n[nH]c4ccc(O[C@H](C)c5c(Cl)cncc5Cl)nc34)cn2)CC1 [Example 35] | – | – | A (A represents 1 ≤ multiple X<20) | 1 to 10 | < 1 |
| COCCn1cc(-c2n[nH]c3ccc(O[C@H](C)c4c(Cl)cncc4Cl)nc23)cn1 [Example 40, (R)-5-(1-(3,5-dichloropyridin-4-yl)ethoxy)-3-(1-(2-methoxyethyl)-1H-pyrazol-4-yl)-1H-pyrazolo[4,3-b]pyridine] | – | – | A (A represents 1 ≤ multiple X<20) | 10 to 100 | 1 to 10 |
| C[C@@H](Oc1ccc2[nH]nc(-c3cnn(CCN4CCN(S(C)(=O)=O)CC4)c3)c2n1)c1c(Cl)cncc1Cl [Example 56, (R)-5-(1-(3,5-dichloropyridin-4-yl)ethoxy)-3-(1-(2-(4-(methylsulfonyl)piperazin-1-yl)ethyl)-1H-pyrazol-4-yl)-1H-pyrazolo[4,3-b]pyridine] | 1 to 10 | < 1 | A (A represents 1 ≤ multiple X<20) | – | – |
| CC(=O)N1CCN(CCn2cc(-c3n[nH]c4ccc(O[C@H](C)c5c(Cl)cncc5Cl)nc34)cn2)CC1 [Example 57, (R)-1-(4-(2-(4-(5-(1-(3,5-dichloropyridin-4-yl)ethoxy)-1H-pyrazolo[4,3-b]pyridin-3-yl)-1H-pyrazol-1-yl)ethyl)piperazin-1-yl)ethan-1-one] | 1 to 10 | < 1 | A (A represents 1 ≤ multiple X<20) | – | – |
